In patent publication US20030212118A1, “Treatment of eating disorders using carboxyalkylethers” (priority 2000, published 2003):
Where a name gives a salt, the structure may show the parent alone. Marks after values point to notes of the source that are not given here.

Assays:
[1] = Evaluation of CI-1027 in female obese Zucker rats (body weight and liver weight); format: in vivo; details: for Body Weight Day 0: Day 0 (baseline), mean ± SEM; for Body Weight Day 0 / Body Weight Day 7 / Body Weight Day 14 / Body Weight Day 21 / Body Weight Day 28 / Body Weight Day 32 / Liver Weight Day 32 / Percent Liver/Body Weight: n = 6; for Body Weight Day 7: Day 7, mean ± SEM; for Body Weight Day 14: Day 14, mean ± SEM; for Body Weight Day 21: Day 21, mean ± SEM; for Body Weight Day 28: Day 28, mean ± SEM; for Body Weight Day 32 / Liver Weight Day 32 / Percent Liver/Body Weight: Day 32, mean ± SEM
Method: Adult female obese Zucker rats weighing 265 to 268 g were obtained from Genetic Models, Inc. The animals were maintained on a diet of pelleted rodent chow (Ralston Purina) and were given water ad libitum. The animals were housed in cages in a temperature controlled room, with a 12-hour light/12-hour dark cycle (lights were turned on at 6 AM each day). CI-1027 was suspended in a vehicle of 1.5% carboxymethylcellulose containing 0.2% Tween-20. A control group of six rats were dosed daily with vehicle alone. One group of six test animals received daily oral dosing (by gavage) of 2.5 mL/kg suspensions of CI-1027 at 30 mg/kg active drug, while another group of six animals received daily oral dosing of 2.5 mL/kg of suspension at 100 mg/kg of CI-1027. The pelleted rodent chow was available ad libitun, except on Days 0, 7, 14, 21, 28, and 32, when food was removed from the cages at 7:30 AM, and the animals were weighed within 2 hours following removal of the food. The food trays were replaced in the cages after the weights of all animals were measured.

[2] = Evaluation of CI-1027 in leptin receptor deficient mice (body weight, food consumption); format: in vivo

CC(C)(CCCCOCCCCC(C)(C)C(=O)O)C(=O)O [CI-1027, 6-(5-carboxy-5-methyl-hexyloxy)-2,2-diiethyl-hexanoic acid, calcium salt]
Body Weight Day 0 ([1]; 30 mg/kg daily oral gavage): 265 ± 4 g
Body Weight Day 7 ([1]; 30 mg/kg daily oral gavage): 283 ± 4^a g
Body Weight Day 14 ([1]; 30 mg/kg daily oral gavage): 299 ± 4^c g
Body Weight Day 21 ([1]; 30 mg/kg daily oral gavage): 311 ± 3^c g
Body Weight Day 28 ([1]; 30 mg/kg daily oral gavage): 317 ± 4^c g
Body Weight Day 32 ([1]; 30 mg/kg daily oral gavage): 321 ± 4^c g
Liver Weight Day 32 ([1]; 30 mg/kg daily oral gavage): 22.8 ± 1.0^c g
Percent Liver/Body Weight ([1]; 30 mg/kg daily oral gavage): 7.09 ± 0.3^c Percent
Body Weight Day 0 ([1]; 100 mg/kg daily oral gavage): 265 ± 4 g
Body Weight Day 7 ([1]; 100 mg/kg daily oral gavage): 286 ± 3^a g
Body Weight Day 14 ([1]; 100 mg/kg daily oral gavage): 302 ± 4^b g
Body Weight Day 21 ([1]; 100 mg/kg daily oral gavage): 314 ± 4^c g
Body Weight Day 28 ([1]; 100 mg/kg daily oral gavage): 326 ± 5^c g
Body Weight Day 32 ([1]; 100 mg/kg daily oral gavage): 326 ± 5^c g
Liver Weight Day 32 ([1]; 100 mg/kg daily oral gavage): 24.8 ± 1.3^c g
Percent Liver/Body Weight ([1]; 100 mg/kg daily oral gavage): 7.53 ± 0.3^c Percent
reduction in weight ([1]; all treatment groups (30 and 100 mg/kg), over 32 days): significant reduction in weight
effect on body weight [2]: no significant effect
effect on food consumption [2]: no significant effect
